Laboratory results reported in ChEMBL document CHEMBL1138127, “Conversion of potent MMP inhibitors into selective TACE inhibitors” (Bioorg Med Chem Lett, 2006).

Key:
[1] = biological target: Disintegrin and metalloproteinase domain-containing protein 17 (Homo sapiens, UniProt P78536); experiment: Inhibitory activity against TACE
[2] = biological target: T1, Interstitial collagenase (Homo sapiens, UniProt P03956); experiment: Binding affinity to MMP1
T1 sequence (P03956 whole entry): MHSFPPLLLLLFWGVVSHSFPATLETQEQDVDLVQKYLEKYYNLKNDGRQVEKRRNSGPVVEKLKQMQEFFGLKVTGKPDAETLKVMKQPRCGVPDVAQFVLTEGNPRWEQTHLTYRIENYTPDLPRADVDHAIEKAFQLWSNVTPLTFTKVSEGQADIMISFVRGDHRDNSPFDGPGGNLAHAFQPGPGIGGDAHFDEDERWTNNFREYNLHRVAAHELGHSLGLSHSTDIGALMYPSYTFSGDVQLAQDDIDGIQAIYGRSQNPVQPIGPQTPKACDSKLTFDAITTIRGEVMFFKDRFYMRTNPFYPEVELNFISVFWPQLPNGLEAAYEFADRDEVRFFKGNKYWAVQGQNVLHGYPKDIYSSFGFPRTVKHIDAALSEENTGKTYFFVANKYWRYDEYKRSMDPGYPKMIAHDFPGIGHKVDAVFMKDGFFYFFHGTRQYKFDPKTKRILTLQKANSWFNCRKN

[3] = biological target: 72 kDa type IV collagenase (Homo sapiens, UniProt P08253); experiment: Binding affinity to MMP2
Sequence of 72 kDa type IV collagenase (P08253 whole entry): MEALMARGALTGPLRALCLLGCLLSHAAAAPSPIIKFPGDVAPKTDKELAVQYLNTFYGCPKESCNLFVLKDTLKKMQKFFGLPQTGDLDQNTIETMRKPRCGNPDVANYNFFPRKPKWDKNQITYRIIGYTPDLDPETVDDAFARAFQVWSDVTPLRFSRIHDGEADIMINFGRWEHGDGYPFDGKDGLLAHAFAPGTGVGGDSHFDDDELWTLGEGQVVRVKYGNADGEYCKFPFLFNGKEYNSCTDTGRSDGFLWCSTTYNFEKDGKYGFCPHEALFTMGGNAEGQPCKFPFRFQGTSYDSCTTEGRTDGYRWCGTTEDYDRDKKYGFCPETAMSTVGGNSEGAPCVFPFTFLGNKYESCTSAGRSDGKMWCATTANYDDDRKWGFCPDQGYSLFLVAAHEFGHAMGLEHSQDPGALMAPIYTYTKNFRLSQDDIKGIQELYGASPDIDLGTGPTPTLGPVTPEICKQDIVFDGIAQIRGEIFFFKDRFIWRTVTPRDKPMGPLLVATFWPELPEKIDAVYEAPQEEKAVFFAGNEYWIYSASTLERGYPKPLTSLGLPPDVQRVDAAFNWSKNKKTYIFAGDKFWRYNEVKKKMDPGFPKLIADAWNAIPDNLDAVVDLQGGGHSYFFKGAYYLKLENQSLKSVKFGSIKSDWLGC

[4] = biological target: Matrix metalloproteinase-9 (Homo sapiens, UniProt P14780); experiment: Binding affinity to MMP9
Sequence of Matrix metalloproteinase-9 (P14780 whole entry): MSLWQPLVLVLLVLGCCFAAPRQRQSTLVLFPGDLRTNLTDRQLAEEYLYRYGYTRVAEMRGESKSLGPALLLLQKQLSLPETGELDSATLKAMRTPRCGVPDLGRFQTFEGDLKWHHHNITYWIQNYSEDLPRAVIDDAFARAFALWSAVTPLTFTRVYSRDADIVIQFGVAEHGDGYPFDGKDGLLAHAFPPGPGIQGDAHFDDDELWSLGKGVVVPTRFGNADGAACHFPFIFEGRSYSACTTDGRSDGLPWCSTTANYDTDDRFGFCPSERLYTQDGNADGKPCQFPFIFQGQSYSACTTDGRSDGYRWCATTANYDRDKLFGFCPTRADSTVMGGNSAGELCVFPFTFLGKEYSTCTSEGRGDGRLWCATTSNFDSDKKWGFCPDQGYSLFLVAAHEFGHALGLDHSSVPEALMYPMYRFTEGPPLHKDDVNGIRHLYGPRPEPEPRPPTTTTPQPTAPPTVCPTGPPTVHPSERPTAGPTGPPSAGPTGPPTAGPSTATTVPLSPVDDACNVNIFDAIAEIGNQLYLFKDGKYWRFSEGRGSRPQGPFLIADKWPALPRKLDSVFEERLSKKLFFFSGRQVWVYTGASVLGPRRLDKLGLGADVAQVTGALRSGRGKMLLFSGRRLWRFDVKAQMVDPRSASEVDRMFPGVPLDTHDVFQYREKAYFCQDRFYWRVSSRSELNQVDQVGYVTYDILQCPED

[5] = biological target: Collagenase 3 (Homo sapiens, UniProt P45452); experiment: Binding affinity to MMP13

Sequence of Disintegrin and metalloproteinase domain-containing protein 17 (P78536 whole entry, the tested form may be a part): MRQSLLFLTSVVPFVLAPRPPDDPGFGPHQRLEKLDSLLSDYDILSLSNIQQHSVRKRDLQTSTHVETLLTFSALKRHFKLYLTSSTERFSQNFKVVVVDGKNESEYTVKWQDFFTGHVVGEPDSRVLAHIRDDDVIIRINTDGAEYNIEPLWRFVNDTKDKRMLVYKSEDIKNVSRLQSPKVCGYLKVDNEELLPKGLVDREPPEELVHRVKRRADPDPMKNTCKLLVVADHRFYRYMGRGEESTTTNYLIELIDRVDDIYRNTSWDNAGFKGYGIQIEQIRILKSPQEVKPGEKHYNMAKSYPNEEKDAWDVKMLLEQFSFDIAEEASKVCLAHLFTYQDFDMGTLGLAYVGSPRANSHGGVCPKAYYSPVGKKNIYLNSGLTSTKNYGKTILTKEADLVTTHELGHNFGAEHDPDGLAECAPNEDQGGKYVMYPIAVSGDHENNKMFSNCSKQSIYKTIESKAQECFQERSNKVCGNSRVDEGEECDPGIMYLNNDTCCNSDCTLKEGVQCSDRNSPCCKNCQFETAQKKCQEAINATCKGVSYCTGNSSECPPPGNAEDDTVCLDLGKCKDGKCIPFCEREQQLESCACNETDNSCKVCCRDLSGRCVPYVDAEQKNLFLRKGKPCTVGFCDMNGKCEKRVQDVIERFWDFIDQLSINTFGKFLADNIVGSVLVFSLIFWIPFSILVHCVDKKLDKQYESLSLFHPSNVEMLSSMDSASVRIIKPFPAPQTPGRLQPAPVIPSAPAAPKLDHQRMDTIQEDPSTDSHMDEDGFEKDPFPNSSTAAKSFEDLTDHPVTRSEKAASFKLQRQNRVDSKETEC

| Compound | IC50 [1] [nM] | Ki [2] [nM] | Ki [3] [nM] | Ki [4] [nM] | Ki [5] [nM] |
| --- | --- | --- | --- | --- | --- |
| COc1ccc(-c2ccc(CN3C(C(=O)NO)CCS3(=O)=O)cc2)cc1 (configuration not stated) | > 1000 | > 4950 | – | – | – |
| Cc1cc(COc2ccc(N3C(C(=O)NO)CCCS3(=O)=O)cc2)c2ccccc2n1 (configuration not stated) | 3.7 | > 4950 | > 3330 | > 2130 | > 5030 |
| Cc1cc(COc2ccc(CC3C(C(=O)NO)CCS3(=O)=O)cc2)c2ccccc2n1 (configuration not stated) | 150 | > 4950 | > 3330 | > 2130 | > 5030 |
| Cc1cc(COc2ccc(N3C(C(=O)NO)CCS3(=O)=O)cc2)c2ccccc2n1 (configuration not stated) | 5.9 | > 4950 | > 3330 | > 2130 | > 5030 |
| Cc1cc(COc2ccc(CN3C(C(=O)NO)CCS3(=O)=O)cc2)c2ccccc2n1 (configuration not stated) | 900 | > 4950 | > 3330 | > 2130 | > 5030 |
| Cc1cc(COc2ccc(CCN3C(C(=O)NO)CCS3(=O)=O)cc2)c2ccccc2n1 (configuration not stated) | 480 | > 4950 | > 3330 | > 2130 | > 5030 |
| Cc1cc(COc2ccc(N3C(C(=O)NO)CNS3(=O)=O)cc2)c2ccccc2n1 (configuration not stated) | 8.3 | > 4950 | > 3330 | > 2130 | > 5030 |
